Legend:
Assay type in all cases: in vivo
Honeycrisp apples [1] = test: Apple coloration in Honeycrisp variety (Example 5); conditions: 34 hours post spray
Description: (§1) To determine if the mixture provided unexpected results, the observed combined efficacy (“OCE”) was divided by the expected combined efficacy (“ECE”) wherein the ECE is calculated by the Abbott method: […]
(§2) wherein ECE is the expected combined efficacy and in which A and B are the fold change from control given by the single active ingredients. If the ratio between the OCE of the mixture and the ECE of the mixture is greater than 1, then greater than expected interactions are present in the mixture. (Gisi, Synergistic Interaction of Fungicides in Mixtures, The American Phytopathological Society, 86:11, 1273-1279, 1996).
(§3) 10 sets of unripened apples, Honeycrisp variety, harvested three weeks before the normal harvest date, were each foliar sprayed with either 1) 0.05% Regulaid® as a control, 2) 50 ppm jasmonic acid, 3) 300 ppm jasmonic acid, 4) 50 ppm ACC, 5) 300 ppm ACC, 6) a mixture of 50 ppm jasmonic acid and 50 ppm ACC, 7) a mixture of 50 ppm jasmonic acid and 300 ppm ACC, 8) a mixture of 300 ppm jasmonic acid and 50 ppm ACC or 9) a mixture of 300 ppm jasmonic acid and 300 ppm ACC. 34 hours post spray application percent red pixel area (shaded) was measured.

Imperial Gala apples = test: Apple coloration in Imperial Gala variety (Example 3); conditions: 34 hours post spray
Description: as §1, §2
as §3, with “Imperial Gala” for “Honeycrisp”, “ppm” for “ppm ACC, 7) a mixture of 50 ppm jasmonic acid and 300 ppm ACC, 8) a mixture of 300 ppm jasmonic acid and 50 ppm”, “7)” for “9)”

Honeycrisp apples [2] = test: Apple coloration in Honeycrisp variety (Example 1), percent red pixel area; conditions: 43 hours post spray; for Average % Red Pixel Area: 50 ppm foliar spray; for Fold Change From control: 50 ppm
Description: 10 sets of unripened green apples, Honeycrisp variety, harvested three weeks before the normal harvest date, were each foliar sprayed with either 1) 0.05% of a mixture of polyoxyethylene-polyoxypropylene polymer, propylene glycol, 2-butoxyethanol (Regulaid®, Regulaid is a registered trademark of Kalo, Inc.) as a control, 2) 50 parts per million (“ppm”) jasmonic acid, 3) 50 ppm ACC or 4) a mixture of 50 ppm jasmonic acid and 50 ppm ACC. 43 hours post spray application percent red pixel area (shaded) was measured. Percent red pixel area is an indication of the coloration of the apple fruit.
as §1, §2

Evercrisp apples = test: Apple coloration in Evercrisp variety (Example 9); conditions: 34 hours post spray
Cripps Pink apples [3] = test: Apple coloration in Cripps Pink variety (Example 10); conditions: Cripps Pink (Example 10), 34 hours post spray
Description: as §1, §2
as §3, with “Cripps Pink” for “Honeycrisp”

Fuji apples = test: Apple coloration in Fuji variety (Example 6); conditions: 34 hours post spray
Description: as §1, §2
as §3, with “Fuji” for “Honeycrisp”

Gala apples [4] = test: Apple coloration in Gala variety, study repeated with Retain added (Example 2, Table 3); conditions: 300 ppm, 34 hours post spray; for Average % Red Pixel Area: Retain added to the application; for Fold Change From control: Retain added
Description: as §1, §2
(§4) 10 sets of unripened apples, Gala variety, harvested three weeks before the normal harvest date, were each foliar sprayed with either 1) 0.05% Regulaid® as a control, 2) 300 ppm jasmonic acid, 3) 300 ppm ACC or 4) a mixture of 300 ppm jasmonic acid and 300 ppm ACC. 34 hours post spray application percent red pixel area (shaded) was measured. Additionally, this study was repeated while adding [S]-trans-2-Amino-4-(2-aminoethoxy)-3-butenoic acid hydrochloride (Retain®, Retain is a registered trademark of Valent BioSciences LLC) to the application.

Pink Lady apples [5] = test: Apple coloration in Pink Lady variety, 100 ppm (Example 13); conditions: 34 hours post spray
Description: as §1, §2
10 sets of unripened apples, Pink Lady variety, harvested three weeks before the normal harvest date, were each foliar sprayed with either 1) 0.05% Regulaid® as a control, 2) 100 ppm jasmonic acid, 3) 100 ppm ACC and 4) a mixture of 100 ppm jasmonic acid and 100 ppm ACC. 34 hours post spray application percent red pixel area (shaded) was measured. The OCE/ECE ratio formula was modified to ECE=A+B−(A*B) to account for reduced average % red pixel area over control for each of the ACC applications.

Gala apples [6] = test: Apple coloration in Gala variety (Example 2, Table 2); conditions: 34 hours post spray; for Average % Red Pixel Area: 300 ppm foliar spray; for Fold Change From control: 300 ppm
Description: as §1, §2, §4

Red Aztec Fuji apples = test: Apple coloration in Red Aztec Fuji variety (Example 7); conditions: 34 hours post spray
Description: as §1, §2
as §3, with “Red Aztec Fuji” for “Honeycrisp”

Cripps Pink apples [7] = test: Apple coloration in Cripps Pink variety, repeat (Example 11); conditions: Cripps Pink (Example 11, repeat), 34 hours post spray
Description: as §1, §2
(§5) The experiment detailed in Example 10 was repeated. Specifically, 10 sets of unripened apples, Cripps Pink variety, harvested three weeks before the normal harvest date, were each foliar sprayed with either 1) 0.05% Regulaid® as a control, 2) 50 ppm jasmonic acid, 3) 300 ppm jasmonic acid, 4) 50 ppm ACC, 5) 300 ppm ACC, 6) a mixture of 50 ppm jasmonic acid and 50 ppm ACC, 7) a mixture of 50 ppm jasmonic acid and 300 ppm ACC, 8) a mixture of 300 ppm jasmonic acid and 50 ppm ACC or 9) a mixture of 300 ppm jasmonic acid and 300 ppm ACC. 34 hours post spray application percent red pixel area (shaded) was measured. The OCE/ECE ratio formula was modified to ECE=A+B−(A*B) to account for reduced average % red pixel area over control for each of the ACC applications.

Aztec Fuji apples = test: Apple coloration in Aztec Fuji variety (Example 8); conditions: 34 hours post spray
Description: as §1, §2
as §3, with “Aztec Fuji” for “Honeycrisp”

Ultima Gala apples = test: Apple coloration in Ultima Gala variety (Example 4); conditions: 34 hours post spray
Pink Lady apples [8] = test: Apple coloration in Pink Lady variety (Example 12); conditions: 34 hours post spray
Description: as §1, §2
as §5, with “10” for “The experiment detailed in Example 10 was repeated. Specifically, 10”, “apples,” for “apples, Cripps”, “Pink Lady” for “Pink”

Structure (SMILES): CC/C=C\C[C@H]1C(=O)CC[C@@H]1CC(=O)O [jasmonic acid]
- Average % Red Pixel Area (Honeycrisp apples [1]; 50 ppm): 5.00%
- Fold Change From control (Honeycrisp apples [1]; 50 ppm): −0.46
- Average % Red Pixel Area (Honeycrisp apples [1]; 300 ppm): 31.37%
- Fold Change From control (Honeycrisp apples [1]; 300 ppm): 2.42
- Average % Red Pixel Area (Imperial Gala apples; 50 ppm): 30.90%
- Fold Change From control (Imperial Gala apples; 50 ppm): 3.54
- Average % Red Pixel Area (Imperial Gala apples; 300 ppm): 45.18%
- Fold Change From control (Imperial Gala apples; 300 ppm): 5.65
- Average % Red Pixel Area (Honeycrisp apples [2]): 38.66%
- Fold Change From control (Honeycrisp apples [2]): 9.64
- Average % Red Pixel Area (Evercrisp apples; 50 ppm): 40.67%
- Fold Change From control (Evercrisp apples; 50 ppm): 1.15
- Average % Red Pixel Area (Evercrisp apples; 300 ppm): 70.81%
- Fold Change From control (Evercrisp apples; 300 ppm): 2.75
- Average % Red Pixel Area (Cripps Pink apples [3]; 50 ppm): 30.79%
- Fold Change From control (Cripps Pink apples [3]; 50 ppm): 3.80
- Average % Red Pixel Area (Cripps Pink apples [3]; 300 ppm): 79.81%
- Fold Change From control (Cripps Pink apples [3]; 300 ppm): 9.84
- Average % Red Pixel Area (Fuji apples; 50 ppm): 24.55%
- Fold Change From control (Fuji apples; 50 ppm): 0.21
- Average % Red Pixel Area (Fuji apples; 300 ppm): 60.29%
- Fold Change From control (Fuji apples; 300 ppm): 1.98
- Average % Red Pixel Area (Gala apples [4]): 24.85%
- Fold Change From control (Gala apples [4]): 5.41
- Average % Red Pixel Area (Pink Lady apples [5]): 49.9%
- Fold Change From control (Pink Lady apples [5]): 2.06
- Average % Red Pixel Area (Gala apples [6]): 61.5%
- Fold Change From control (Gala apples [6]): 15.53
- Average % Red Pixel Area (Red Aztec Fuji apples; 50 ppm): 22.53%
- Fold Change From control (Red Aztec Fuji apples; 50 ppm): 0.26
- Average % Red Pixel Area (Red Aztec Fuji apples; 300 ppm): 75.2%
- Fold Change From control (Red Aztec Fuji apples; 300 ppm): 3.21
- Average % Red Pixel Area (Cripps Pink apples [7]; 50 ppm): 63.91%
- Fold Change From control (Cripps Pink apples [7]; 50 ppm): 1.30
- Average % Red Pixel Area (Cripps Pink apples [7]; 300 ppm): 85.52%
- Fold Change From control (Cripps Pink apples [7]; 300 ppm): 1.74
- Average % Red Pixel Area (Aztec Fuji apples; 50 ppm): 38.27%
- Fold Change From control (Aztec Fuji apples; 50 ppm): 0.20
- Average % Red Pixel Area (Aztec Fuji apples; 300 ppm): 71.99%
- Fold Change From control (Aztec Fuji apples; 300 ppm): 1.25
- Average % Red Pixel Area (Ultima Gala apples; 50 ppm): 43.46%
- Fold Change From control (Ultima Gala apples; 50 ppm): 2.91
- Average % Red Pixel Area (Ultima Gala apples; 300 ppm): 63.02%
- Fold Change From control (Ultima Gala apples; 300 ppm): 4.67
- Average % Red Pixel Area (Pink Lady apples [8]; 50 ppm): 68.55%
- Fold Change From control (Pink Lady apples [8]; 50 ppm): 1.91
- Average % Red Pixel Area (Pink Lady apples [8]; 300 ppm): 76.7%
- Fold Change From control (Pink Lady apples [8]; 300 ppm): 2.13

Structure (SMILES): NC1(C(=O)O)CC1 [ACC, 1-amino-1-cyclopropanecarboxylic acid]
- Average % Red Pixel Area (Honeycrisp apples [1]; 50 ppm): 4.70%
- Fold Change From control (Honeycrisp apples [1]; 50 ppm): −0.49
- Average % Red Pixel Area (Honeycrisp apples [1]; 300 ppm): 3.80%
- Fold Change From control (Honeycrisp apples [1]; 300 ppm): 0.59
- Average % Red Pixel Area (Imperial Gala apples; 50 ppm): 7.02%
- Fold Change From control (Imperial Gala apples; 50 ppm): 0.03
- Average % Red Pixel Area (Imperial Gala apples; 300 ppm): 4.66%
- Fold Change From control (Imperial Gala apples; 300 ppm): −0.31
- Average % Red Pixel Area (Honeycrisp apples [2]): 4.74%
- Fold Change From control (Honeycrisp apples [2]): 1.18
- Average % Red Pixel Area (Evercrisp apples; 50 ppm): 46.78%
- Fold Change From control (Evercrisp apples; 50 ppm): 1.48
- Average % Red Pixel Area (Evercrisp apples; 300 ppm): 72.16%
- Fold Change From control (Evercrisp apples; 300 ppm): 2.82
- Average % Red Pixel Area (Cripps Pink apples [3]; 50 ppm): 54.12%
- Fold Change From control (Cripps Pink apples [3]; 50 ppm): 6.67
- Average % Red Pixel Area (Cripps Pink apples [3]; 300 ppm): 57.97%
- Fold Change From control (Cripps Pink apples [3]; 300 ppm): 7.15
- Average % Red Pixel Area (Fuji apples; 50 ppm): 20.61%
- Fold Change From control (Fuji apples; 50 ppm): 0.02
- Average % Red Pixel Area (Fuji apples; 300 ppm): 25.47%
- Fold Change From control (Fuji apples; 300 ppm): 0.26
- Average % Red Pixel Area (Gala apples [4]): 4.71%
- Fold Change From control (Gala apples [4]): 1.03
- Average % Red Pixel Area (Pink Lady apples [5]): 19.32%
- Fold Change From control (Pink Lady apples [5]): 0.80
- Average % Red Pixel Area (Gala apples [6]): 3.63%
- Fold Change From control (Gala apples [6]): 0.92
- Average % Red Pixel Area (Red Aztec Fuji apples; 50 ppm): 17.08%
- Fold Change From control (Red Aztec Fuji apples; 50 ppm): −0.04
- Average % Red Pixel Area (Red Aztec Fuji apples; 300 ppm): 15.84%
- Fold Change From control (Red Aztec Fuji apples; 300 ppm): −0.11
- Average % Red Pixel Area (Cripps Pink apples [7]; 50 ppm): 34.68%
- Fold Change From control (Cripps Pink apples [7]; 50 ppm): 0.70
- Average % Red Pixel Area (Cripps Pink apples [7]; 300 ppm): 48.78%
- Fold Change From control (Cripps Pink apples [7]; 300 ppm): 0.99
- Average % Red Pixel Area (Aztec Fuji apples; 50 ppm): 35.07%
- Fold Change From control (Aztec Fuji apples; 50 ppm): 0.10
- Average % Red Pixel Area (Aztec Fuji apples; 300 ppm): 29.25%
- Fold Change From control (Aztec Fuji apples; 300 ppm): −0.09
- Average % Red Pixel Area (Ultima Gala apples; 50 ppm): 10.44%
- Fold Change From control (Ultima Gala apples; 50 ppm): −0.06
- Average % Red Pixel Area (Ultima Gala apples; 300 ppm): 14.87%
- Fold Change From control (Ultima Gala apples; 300 ppm): 0.34
- Average % Red Pixel Area (Pink Lady apples [8]; 50 ppm): 24.63%
- Fold Change From control (Pink Lady apples [8]; 50 ppm): 0.68
- Average % Red Pixel Area (Pink Lady apples [8]; 300 ppm): 28.83%
- Fold Change From control (Pink Lady apples [8]; 300 ppm): 0.80

— patent publication US20240108009A1, “1-AMINO-1-CYCLOPROPANECARBOXYLIC ACID AND JASMONIC ACID MIXTURES AND USES THEREOF” (Valent BioSciences LLC, priority 2022, published 2024)
